Measurements published in patent EP1944294A1, “Gamma-polymorph of a substituted pyrazoline, its preparation and use as medicaments” (Laboratorios del Dr. Esteve S.A., priority 2007, dated 2008).

Target: recombinant human cannabinoid 1 receptor (CB1) (Homo sapiens, UniProt P21554)
Conditions: compound at 1 µM; 100 % = difference between maximal effect of WIN 55,212-2 alone and WIN 55,212-2 plus Rimonabant (1 µM)
Protocol: Chinese hamster ovary (CHO) cells stably expressing recombinant human cannabinoid 1 receptor (CB1) are cultured in nutrient mixture Ham's F 12 supplemented with 10 % heat-inactivated fetal bovine serum, 2 mM L-glutamine, 50 U/ml penicillin, 50 U/ml streptomycin and 0.5 mg/ml geneticin. In order to obtain cells, culture flasks are washed twice with phosphate buffered saline and scraped. Then, cells are collected by centrifugation (200 x g, 10 min) and stored dry at -80°C. Cells are homogenized in ice-cold 20 mM HEPES, 10 mM EDTA (pH 7.5) and centrifuged at 40,000 x g for 15 min at 4°C. The membrane pellet is resuspended in 20 mM HEPES, 0.1 1 mM EDTA (pH 7.5) and centrifuged for 15 min at 4°C. The final membrane pellet is resuspended in 20 mM HEPES, 0.1 1 mM EDTA (pH 7.5), and divided in aliquots and stored at -80°C until use.
The reaction is performed in 96-well plates. Membranes (15 µg protein/well) are incubated for 60 min at 30 °C in buffer (50 mM HEPES, 100 mM KCI, 5 mM MgCl2,1 mM EDTA, 0.1 % wt/vol bovine serum albumin, 5 µM GDP, saponin (10 µg/ml), 0.5 nM [^35S]GTPγS, pH 7.4) with compound at a final concentration of 1 µM in either the absence or presence of agonist WIN 55,212-2 between 3 nM and 3 µM. […] Radioactivity is determined using a Wallac Microbeta Trilux. […]

recombinant human cannabinoid 1 receptor (CB1), sequence (P21554 whole entry): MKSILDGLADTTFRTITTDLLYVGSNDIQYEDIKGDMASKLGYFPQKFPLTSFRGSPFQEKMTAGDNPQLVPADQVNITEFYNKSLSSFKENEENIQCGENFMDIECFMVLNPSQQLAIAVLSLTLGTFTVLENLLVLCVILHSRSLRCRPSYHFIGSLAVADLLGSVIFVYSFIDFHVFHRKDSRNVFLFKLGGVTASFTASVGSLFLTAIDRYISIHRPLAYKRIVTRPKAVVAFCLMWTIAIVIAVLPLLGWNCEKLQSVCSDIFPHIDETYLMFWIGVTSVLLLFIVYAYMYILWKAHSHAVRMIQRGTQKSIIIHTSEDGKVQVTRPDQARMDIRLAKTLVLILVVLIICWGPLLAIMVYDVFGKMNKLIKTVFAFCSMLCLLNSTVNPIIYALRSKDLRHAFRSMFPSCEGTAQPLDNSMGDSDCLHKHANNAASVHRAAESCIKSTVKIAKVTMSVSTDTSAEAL

O=C(NN1CCCCC1)C1=NN(c2ccc(Cl)cc2Cl)[C@@H](c2ccc(Cl)cc2)C1 [Compound A, (R)-N-piperidinyl-5-(4-chlorophenyl)-1-(2,4-dichlorophenyl)-4,5-dihydro-1H-pyrazole-3-carboxamide] was tested, and the Antagonism was 106%.
